Like-named read-outs stand apart in the source and are kept apart here.
Legend:
HIV-IIIb = experiment: Test A: Antiviral Assay in MT4 Cells; type: cell-based; details: MT-4 cells infected with HIV-IIIb, 5 days of incubation, CellTiter-Glo, read-out: EC50
Procedure, shortened: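 Read-out: CellTiter-Glo chemiluminescence after 5-day incubation at 37 °C. Compounds tested as 3-fold serial dilutions (10 concentrations, quadruplicate) in RPMI 1640 with 10% FBS, on MT-4 cells pre-infected at 37 °C with HIV-IIIb at 0.004 m.o.i.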

human liver microsomes = experiment: Test B: Metabolic Stability Assay with Human Liver Microsomes; type: in vitro ADME; details: 1 uM compound, 1 mg/mL human liver microsomal proteins, 37° C., 0-60 minutes; half-life class
Text: Test B: Metabolic Stability Assay with Human Liver Microsomes
Effective viral suppression in the HIV infected patient requires that the antiviral drug persists in the patient's body at concentrations exceeding the minimum concentration required to inhibit viral proliferation. One of the factors controlling the drug levels after dosing is metabolic conversion. The liver is one site of drug metabolism. Approximately 60% of marketed drugs are cleared by hepatic metabolism (McGinnity D F et al. (2004) Drug Metab Dispos 32; 1247-1253). Liver microsomes are subcellular fractions which contain membrane bound drug metabolising enzymes. Human liver microsomes provide a convenient and concentrated source of the key liver metabolic enzymes (e.g., cytochromes P450, UDP-glucuronosyltransferases, and many others) and can be used to predict the metabolic stability of drug candidates (e.g., agents).
Cluster tubes containing 500 uL of 1 uM compound with 1 mg/mL human liver microsomal proteins (BD Biosciences, BD452117)/50 mM K-phosphate buffer pH7.4/NADPH regenerating system/and UDP-glucuronosyltransferase cofactors, were incubated on the Precision-2000 workstation at 37° C. for 0, 10, 25, 60 minutes. The reactions were quenched with 100 uL of 0.2% formic acid in 90% ACN; containing 50 nM of an internal standard. The samples were analyzed on LC/MS/MS instrument (Q-Trap). Metabolic stabilities in microsomal fractions and hepatocytes were determined by measuring the rate of disappearance of the compound. Data (% of parent remaining) were plotted on a semi logarithmic scale and fitted using an exponential fit.

[1] = Human immunodeficiency virus 1, IIIB, MT4, 120 h, Table 2

SMILES | EC50 (HIV-IIIb; [1]) [nM] | Human Microsomal stability (human liver microsomes) | EC50 (HIV-IIIb; Table 1) [nM]
Cc1cc2nc(-c3ccc4c(N(C)C)nn(C)c4c3)sc2c(-c2ccc(Cl)cc2)c1[C@H](OC(C)(C)C)C(=O)O [Compound 206, (S)-2-tert-butoxy-2-(7-(4-chlorophenyl)-2-(3-(dimethylamino)-1-methyl-1H-indazol-6-yl)-5-methylbenzo[d]thiazol-6-yl)acetic acid] | 24 | C (a human microsomal stability half-life of less than 150 minutes) | 
Cc1cc2nc(-c3ccc4c(c3)c(-c3cccnc3)nn4C)sc2c(-c2ccc(Cl)cc2)c1[C@H](OC(C)(C)C)C(=O)O [Compound 212, (S)-2-tert-butoxy-2-(7-(4-chlorophenyl)-5-methyl-2-(1-methyl-3-(pyridin-3-yl)-1H-indazol-5-yl)benzo[d]thiazol-6-yl)acetic acid] | 6 | A (a human microsomal stability half-life of greater than or equal to 300 minutes) | 726
Cc1cc2nc(-c3ccc4c(c3)c(N3CCN(C)CC3)nn4C)sc2c(-c2ccc(Cl)cc2)c1[C@H](OC(C)(C)C)C(=O)O [Compound 257, (S)-2-tert-butoxy-2-(7-(4-chlorophenyl)-5-methyl-2-(1-methyl-3-(4-methylpiperazin-1-yl)-1H-indazol-5-yl)benzo[d]thiazol-6-yl)acetic acid] | 5 | A (a human microsomal stability half-life of greater than or equal to 300 minutes) | 
Cc1cc2nc(N3CCN(C)C(c4ccc5c(cnn5C)c4)C3)sc2c(-c2ccc(Cl)cc2)c1[C@H](OC(C)(C)C)C(=O)O (stereo partly drawn) [Compound 278, (2S)-2-tert-butoxy-2-(7-(4-chlorophenyl)-5-methyl-2-(4-methyl-3-(1-methyl-1H-indazol-5-yl)piperazin-1-yl)benzo[d]thiazol-6-yl)acetic acid] | 4 | B (a human microsomal stability half-life of less than 300 minutes but greater than or equal to 150 minutes) | 
Cc1cc2nc(-c3ccnc(N4CC(N(C)C)C4)n3)sc2c(-c2ccc(Cl)cc2)c1[C@H](OC(C)(C)C)C(=O)O [Compound 333, (S)-2-tert-butoxy-2-(7-(4-chlorophenyl)-2-(2-(3-(dimethylamino)azetidin-1-yl)pyrimidin-4-yl)-5-methylbenzo[d]thiazol-6-yl)acetic acid] | 3 | A (a human microsomal stability half-life of greater than or equal to 300 minutes) | 
Cc1cc2nc(-c3ccnc(N4CCN(C5COC5)CC4)n3)sc2c(-c2ccc(Cl)cc2)c1[C@H](OC(C)(C)C)C(=O)O [Compound 336, (S)-2-tert-butoxy-2-(7-(4-chlorophenyl)-5-methyl-2-(2-(4-(oxetan-3-yl)piperazin-1-yl)pyrimidin-4-yl)benzo[d]thiazol-6-yl)acetic acid] | 2 | A (a human microsomal stability half-life of greater than or equal to 300 minutes) | 
